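Grown in 96-well plates, cells were treated for 48 hours with each compound at five concentrations. Insufficient inhibition: endpoint recorded as highest concentration tested. Abbreviation: GI50, concentration required for 50% inhibition of growth. At the TGI there is no net growth.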
What was measured:
Test in all cases: DTP human tumour cell line panel, 48 h
[1] = system: OVCAR-4 ovarian
[2] = system: ACHN renal
[3] = system: SNB-19 CNS
[4] = system: MOLT-4 leukemia
[5] = system: U251 CNS
[6] = system: SK-MEL-5 melanoma
[7] = system: UO-31 renal
[8] = system: NCI-H522 lung
[9] = system: OVCAR-5 ovarian
[10] = system: RPMI-8226 leukemia
[11] = system: HL-60(TB) leukemia
[12] = system: MDA-MB-231 breast
[13] = system: UACC-257 melanoma
[14] = system: IGROV1 ovarian
[15] = system: HOP-92 NSCLC
[16] = system: LOX IMVI melanoma
[17] = system: HCT-116 colon
[18] = system: MDA-MB-435
[19] = system: SW-620 colon
[20] = system: CCRF-CEM leukemia
[21] = system: NCI-H460 lung
[22] = system: SN12C renal
[23] = system: SK-MEL-28 melanoma
[24] = system: T-47D breast
[25] = system: COLO 205 colon
[26] = system: HS 578T breast
[27] = system: SF-539 CNS
[28] = system: OVCAR-3 ovarian
[29] = system: 786-0 renal
[30] = system: NCI-H23 lung
[31] = system: SNB-75 CNS
[32] = system: DU-145 prostate
[33] = system: TK-10 renal
[34] = system: UACC-62 melanoma
[35] = system: A498 renal
[36] = system: KM12 colon
[37] = system: HCC-2998 colon
[38] = system: SK-MEL-2 melanoma
[39] = system: SF-268 CNS
[40] = system: SF-295 CNS
[41] = system: M14 melanoma
[42] = system: SR leukemia
[43] = system: PC-3 prostate
[44] = system: BT-549 breast
[45] = system: MCF7 breast
[46] = system: OVCAR-8 ovarian
[47] = system: SK-OV-3 ovarian
[48] = system: A549 NSCLC
[49] = system: NCI-H226 lung
[50] = system: HCT-15 colon
[51] = system: NCI/ADR-RES ovarian
[52] = system: RXF 393 renal
[53] = system: HOP-62 NSCLC

For COc1cc(C2C=C(C)N=C3SC=C(C)N32)cc(OC)c1OC (stereo unspecified), which GI50 [1] is on record?
The GI50 was 3990 nM.

What about the TGI [1] of the same molecule?
Its TGI is over 100000 nM.

And the GI50 [2]?
Its GI50 is 618 nM.

And the TGI [2]?
The TGI was 3610 nM.

What about the GI50 [3] of the same molecule?
Its GI50 is 2320 nM.

What about the TGI [3] of the same molecule?
Its TGI is 15800 nM.

What about the GI50 [4] of the same molecule?
Its GI50 is 445 nM.

And the TGI [4]?
Its TGI is over 100000 nM.

And the GI50 [5]?
The GI50 was 671 nM.

And the TGI [5]?
Its TGI is 2790 nM.

What about the GI50 [6] of the same molecule?
The GI50 was 1000 nM.

And the TGI [6]?
The TGI was 2210 nM.

What about the GI50 [7] of the same molecule?
Its GI50 is 1130 nM.

And the TGI [7]?
Its TGI is 2470 nM.

And the GI50 [8]?
The GI50 was 530 nM.

What about the TGI [8] of the same molecule?
The TGI was 1810 nM.

What about the GI50 [9] of the same molecule?
The GI50 was 1550 nM.

What about the TGI [9] of the same molecule?
Its TGI is 3830 nM.

And the GI50 [10]?
Its GI50 is 385 nM.

And the TGI [10]?
The TGI was 2570 nM.

And the GI50 [11]?
Its GI50 is 760 nM.

And the TGI [11]?
Its TGI is 7090 nM.

What about the GI50 [12] of the same molecule?
Its GI50 is 1500 nM.

And the TGI [12]?
Its TGI is 9260 nM.

What about the GI50 [13] of the same molecule?
The GI50 was 1770 nM.

And the TGI [13]?
Its TGI is 4890 nM.

What about the GI50 [14] of the same molecule?
Its GI50 is 2220 nM.

And the TGI [14]?
The TGI was 7300 nM.

And the GI50 [15]?
Its GI50 is 2080 nM.

And the TGI [15]?
The TGI was 5950 nM.

And the GI50 [16]?
Its GI50 is 379 nM.

And the TGI [16]?
The TGI was 1730 nM.

And the GI50 [17]?
Its GI50 is 171 nM.

What about the TGI [17] of the same molecule?
The TGI was 336 nM.

And the GI50 [18]?
Its GI50 is 631 nM.

And the TGI [18]?
Its TGI is 6450 nM.

What about the GI50 [19] of the same molecule?
The GI50 was 516 nM.

What about the TGI [19] of the same molecule?
The TGI was 9430 nM.

And the GI50 [20]?
The GI50 was 312 nM.

What about the TGI [20] of the same molecule?
The TGI was over 100000 nM.

What about the GI50 [21] of the same molecule?
The GI50 was 2110 nM.

What about the TGI [21] of the same molecule?
Its TGI is 7330 nM.

What about the GI50 [22] of the same molecule?
Its GI50 is 2230 nM.

What about the TGI [22] of the same molecule?
Its TGI is 7530 nM.

And the GI50 [23]?
Its GI50 is 507 nM.

What about the TGI [23] of the same molecule?
Its TGI is 2010 nM.

What about the GI50 [24] of the same molecule?
Its GI50 is 1910 nM.

And the TGI [24]?
The TGI was 7270 nM.

What about the GI50 [25] of the same molecule?
Its GI50 is 1320 nM.

And the TGI [25]?
Its TGI is 3040 nM.

What about the GI50 [26] of the same molecule?
The GI50 was 2950 nM.

And the TGI [26]?
The TGI was 74200 nM.

And the GI50 [27]?
The GI50 was 353 nM.

And the TGI [27]?
The TGI was 4600 nM.

What about the GI50 [28] of the same molecule?
Its GI50 is 781 nM.

What about the TGI [28] of the same molecule?
The TGI was 7660 nM.

What about the GI50 [29] of the same molecule?
The GI50 was 827 nM.

And the TGI [29]?
Its TGI is 2670 nM.

And the GI50 [30]?
The GI50 was 1770 nM.

And the TGI [30]?
The TGI was 5410 nM.

What about the GI50 [31] of the same molecule?
Its GI50 is 4300 nM.

What about the TGI [31] of the same molecule?
Its TGI is 20100 nM.

And the GI50 [32]?
The GI50 was 1810 nM.

What about the TGI [32] of the same molecule?
Its TGI is over 100000 nM.

And the GI50 [33]?
The GI50 was 2220 nM.

What about the TGI [33] of the same molecule?
The TGI was 5610 nM.

What about the GI50 [34] of the same molecule?
Its GI50 is 473 nM.

What about the TGI [34] of the same molecule?
The TGI was 1870 nM.

What about the GI50 [35] of the same molecule?
The GI50 was 2390 nM.

And the TGI [35]?
Its TGI is 5640 nM.

And the GI50 [36]?
The GI50 was 1330 nM.

What about the TGI [36] of the same molecule?
The TGI was 4550 nM.

What about the GI50 [37] of the same molecule?
Its GI50 is 1940 nM.

And the TGI [37]?
Its TGI is 3540 nM.

What about the GI50 [38] of the same molecule?
The GI50 was 2040 nM.

What about the TGI [38] of the same molecule?
The TGI was 4940 nM.

What about the GI50 [39] of the same molecule?
Its GI50 is 1400 nM.

And the TGI [39]?
The TGI was 11400 nM.

And the GI50 [40]?
The GI50 was 2070 nM.

And the TGI [40]?
The TGI was 6190 nM.

And the GI50 [41]?
The GI50 was 1130 nM.

And the TGI [41]?
The TGI was 2890 nM.

And the GI50 [42]?
The GI50 was 249 nM.

And the TGI [42]?
Its TGI is over 100000 nM.

And the GI50 [43]?
The GI50 was 1560 nM.

And the TGI [43]?
The TGI was 5880 nM.

What about the GI50 [44] of the same molecule?
Its GI50 is 531 nM.

What about the TGI [44] of the same molecule?
The TGI was 2090 nM.

And the GI50 [45]?
Its GI50 is 333 nM.

And the TGI [45]?
The TGI was 11900 nM.

And the GI50 [46]?
The GI50 was 342 nM.

What about the TGI [46] of the same molecule?
The TGI was 10100 nM.

And the GI50 [47]?
Its GI50 is 2910 nM.

And the TGI [47]?
Its TGI is 8540 nM.

What about the GI50 [48] of the same molecule?
The GI50 was 2100 nM.

And the TGI [48]?
The TGI was 6560 nM.

What about the GI50 [49] of the same molecule?
The GI50 was 1880 nM.

What about the TGI [49] of the same molecule?
The TGI was 5810 nM.

And the GI50 [50]?
The GI50 was 246 nM.

And the TGI [50]?
Its TGI is 822 nM.

And the GI50 [51]?
Its GI50 is 454 nM.

And the TGI [51]?
Its TGI is over 100000 nM.

What about the GI50 [52] of the same molecule?
Its GI50 is 1490 nM.

And the TGI [52]?
The TGI was 3140 nM.

And the GI50 [53]?
The GI50 was 2080 nM.

What about the TGI [53] of the same molecule?
The TGI was 4530 nM.

Source: PubChem BioAssay (NCI)
